# Patent US20170216329A1, “Ceramide-Rubusoside Nanomicelles and Their Use in Cancer Therapy” (Board of Supervisors of Louisiana State University and …, priority 2014, published 2017)
# How the values were obtained:
# [1] = test system: wt p53 (phosphorylated-Ser15); details: cited from earlier work
# [2] = test system: A2780 ovarian cancer cells (p53 wild-type); assay: Cell viability after 72 hours, A2780; format: cell-based
# [3] = test system: p53, Bax and p21 in the small intestine; assay: p53 restoration in heterozygous p53R172H/+ transgenic mice (small intestine); format: in vivo; details: 1 mg/kg, i.p., every 3 days for 6 days; vs. saline
# Excerpt: We examined the effects of Cer on restoring wt p53 expression in p53 missense transgenic mice. The experimental animals were heterozygous 129S4-Trp53^tm2.1Tyj transgenic mice, which carry the mutation p53^R172H/+, and have a genetic predisposition to cancer. (Doyle et al., 2010; Olive et al., 2004; Yu et al., 2012) These mice were generously provided by the NCI Mouse Repository (Rockville, Md.). We analyzed the genotypes of offspring by PCR analysis of DNA from blood collected from the tail vein. Heterozygous (HTZ) p53^R172H/+ mice were treated with C6-Cer or C6-Cer-RUB (1 mg/kg, i.p., every 3 days for 6 days).
# [4] = test system: OVCAR3 ovarian cancer cells (p53 R248 missense mutation); assay: Cell viability after 72 hours, OVCAR3; format: cell-based, Human
# Description: We examined the effect of Ceramide-RUB nanomicelles on p53 restoration in cancer cell models. Human OVCAR3 ovarian cancer cells carry a p53 R248 missense mutation, and are resistant to many anticancer drugs. […] FIG. 3 depicts cell viability (as a percentage of control) after treatment for 72 hours with varying concentrations of C6-Ceramide. FIG. 4 depicts cell viability (as a percentage of control) after treatment for 72 hours with varying concentrations of C6-Ceramide-Rubusoside. FIG. 5 depicts cell viability (as a percentage of control) after treatment for 72 hours with varying concentrations of Rubusoside.
# [5] = test system: protein phosphatase 1 (PP1); assay: PP1 activity in NCI/ADR-RES cells; format: cell-based, human
# Description: Cer can modulate gene expression, not only by activating transcription, but also by determining protein isoform. […] We assessed the roles of protein phosphatase 1 (PP1) and serine/arginine-rich splicing-factor 1 SRSF1 in Cer-induced wt p53 restoration via PP1 and SRSF1 in NCI/ADR-RES human ovarian cancer cells. […] Cells were pretreated with CalA (5 nM) for 4 hr, and then with either MBO-asGCS (MBO-as, 100 nM) or C6-Cer (2.5 μM) for 72 hr. FIG. 2 depicts PP1 activity in NCI/ADR-RES cells with various treatments. […] These increases were correlated with increases in wt p53 mRNA (exon 5) and pp53 (as assessed by RT-PCR amplification, data not shown).
# [6] = test system: HTZ SW48/TP53+/− and parental SW48 (wt p53) cells; assay: Sensitivity of SW48 cells to Cers; format: cell-based, human; details: both cell lines, data not shown
# [7] = WHO intake limits (ADI, NOEL); details: converted from the steviol ADI
# Description: (§1) Rubusoside (RUB) is a steviol glycoside. Steviol glycosides, extracted from the leaves of various plants, are often used as natural food sweeteners. […] Rubusoside is generally recognized as safe (GRAS) as a food additive for the general public according to the World Health Organization (WHO) (2005). A WHO expert panel has set 760 mg/kg/day RUB as the no-observed-effect level (NOEL) (2005). Thus there is ample tolerance for avoiding toxicity when rubusoside is employed in the present invention.
# [8] = Preliminary oral toxicity study in normal mice; format: in vivo; details: up to 4 g daily per kg body mass, orally, two weeks
# Description: as §1
# [9] = set by WHO expert panel (2005); cited from earlier work
structure (smiles),measurement,setting,value
"CCCCCCCCCCCCC/C=C/[C@@H](O)[C@H](CO)NC(=O)CCCCC [C6-Cer, C6-Ceramide]",restoration of p53 activity,"[1]; exogenous, Liu et al., 2011",restored p53 activity
same,IC50,[2],0.9 µM
same,protein level of Bax in the small intestine,[3],significantly increased
same,protein level of p53 in the small intestine,[3],significantly increased
same,IC50,"[4]; OVCAR3 cells, 72 hours",12.5 µM
same,resistance of OVCAR3 relative to A2780 cells,[4]; ratio of IC50 values,12 times
same,PP1 activity,"[5]; MBO-asGCS 100 nM or C6-Cer 2.5 μM, 72 hr",significantly increased
CCCCCCCCCCCCC/C=C/[C@@H](O)[C@H](CO)NC(=O)CCCCCCCCCCCCCCCCC [C18-Cer],relative sensitivity of cells to Cers,[6],more sensitive to C18-Cer than C6-Cer
CCCC[C@@H](C)[C@@H](OC(=O)C[C@@H](CC(=O)O)C(=O)O)[C@H](C[C@@H](C)C[C@H](O)CCCC[C@@H](O)C[C@H](O)[C@H](C)N)OC(=O)C[C@@H](CC(=O)O)C(=O)O [Fumonisin B1],effect on p53 restoration by MBO-asGCS,[1]; inhibitor of Cer synthase,inhibited p53 restoration
"C=C1C[C@@]23CC[C@H]4[C@@](C)(CCC[C@@]4(C)C(=O)O[C@@H]4O[C@H](CO)[C@@H](O)[C@H](O)[C@H]4O)[C@@H]2CC[C@]1(O[C@@H]1O[C@H](CO)[C@@H](O)[C@H](O)[C@H]1O)C3 [Rubusoside, rubusoside]",cytotoxicity,[2]; any concentration tested up to 15 μM,no cytotoxicity
same,"Accepted Daily Intake (ADI), roughly comparable amount",[7],8 to 12 mg/kg/day
same,cytotoxicity,"[4]; OVCAR-3 cells, any concentration tested up to 15 μM, 72 hours",no cytotoxicity
same,clinical signs of toxicity,[8],did not cause any clinical signs of toxicity
same,no-observed-effect level (NOEL),[9],760 mg/kg/day
COC[C@@H]([C@H](O)[C@H](O)C(=O)NCC[C@H](C)c1nc(/C=C/C[C@@H]2O[C@]3(C[C@@H](O)[C@@H]2C)O[C@H]([C@H](C[C@H](O)[C@H](C)[C@H](O)[C@H](C)/C=C(C)/C(C)=C/C=C/C(C)=C\C#N)OC)[C@H](OP(=O)(O)O)C3(C)C)co1)N(C)C [calyculin A],effect on PP1 activation by MBO-asGCS and C6-Cer,[5],abolished these effects
